Here are results for 15 compounds from patent publication US20250034125A1, “COMPOUNDS AND USES THEREOF” (JANSSEN PHARMACEUTICA NV, priority 2019, published 2025).

For one assay, the target named is T1, SCD5 (Homo sapiens, UniProt Q86SK9).
T1 construct: host or cells: Saccharomyces cerevisiae ole1Δ strain (W303 pdr1Δ pdr3Δ background), plasmid pRS316, TDH3 promoter
T1 sequence (Q86SK9 1-330): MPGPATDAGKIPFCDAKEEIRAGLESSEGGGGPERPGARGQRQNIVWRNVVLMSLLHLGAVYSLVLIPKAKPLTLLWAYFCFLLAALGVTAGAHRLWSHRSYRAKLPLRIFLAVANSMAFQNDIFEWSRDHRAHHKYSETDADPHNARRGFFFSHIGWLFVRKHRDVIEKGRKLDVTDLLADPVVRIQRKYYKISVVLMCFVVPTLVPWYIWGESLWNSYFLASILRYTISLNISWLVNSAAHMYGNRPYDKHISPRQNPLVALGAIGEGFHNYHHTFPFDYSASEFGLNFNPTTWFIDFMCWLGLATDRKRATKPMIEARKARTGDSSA
Nature of the assay: Growth inhibition of yeast (ole1Δ) expressing human SCD5 as the sole desaturase. In kind it is cell-based. To be noted: yeast strain with SCD5 plasmid, OD600 growth read at 40 h; read-out: SCD5 IC50.

The target in the next assay is T2, SCD1 (Homo sapiens, UniProt O00767).
T2 construct: host or cells: Saccharomyces cerevisiae ole1Δ strain (W303 pdr1Δ pdr3Δ background), plasmid pRS316, TDH3 promoter
T2 sequence (O00767 1-359): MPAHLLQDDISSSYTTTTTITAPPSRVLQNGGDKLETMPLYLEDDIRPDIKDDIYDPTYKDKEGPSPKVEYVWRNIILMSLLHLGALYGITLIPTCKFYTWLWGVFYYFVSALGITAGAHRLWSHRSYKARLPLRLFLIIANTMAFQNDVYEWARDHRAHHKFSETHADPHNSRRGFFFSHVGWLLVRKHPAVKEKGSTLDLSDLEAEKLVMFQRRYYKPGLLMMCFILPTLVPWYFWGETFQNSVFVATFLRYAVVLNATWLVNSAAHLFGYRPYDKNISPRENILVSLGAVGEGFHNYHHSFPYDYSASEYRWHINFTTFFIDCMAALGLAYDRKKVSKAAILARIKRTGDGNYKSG
The experiment in a line: Growth inhibition of yeast (ole1Δ) expressing human SCD1 as the sole desaturase. Type of assay: cell-based. To be noted: yeast strain with SCD1 plasmid, OD600 growth read at 40 h; read-out: SCD1 IC50.

Broadly, the IC50 is the point on the concentration scale where inhibition reaches its midpoint. For `Cn1nc(NC(=O)N2CCC(Oc3ccccc3)CC2)ccc1=O` [Compound 67, N-(1-methyl-6-oxo-1,6-dihydropyridazin-3-yl)-4-phenoxypiperidine-1-carboxamide], the half-maximal inhibitory concentration (IC50) stood at 2100 nM at SCD5 and 3980 nM on SCD1.

For `Cn1nc(NC(=O)N2CCC(Oc3cccc(Cl)c3)CC2)ccc1=O` [Compound 68, 4-(3-chlorophenoxy)-N-(1-methyl-6-oxo-1,6-dihydropyridazin-3-yl)piperidine-1-carboxamide], the IC50 at SCD5 was 60 nM; at SCD1, 260 nM.

`Cn1nc(NC(=O)N2CCC(Oc3ccccc3Cl)CC2)ccc1=O` [Compound 69]: the IC50 on SCD5 was 150 nM; at SCD1, 420 nM.

As to `Cn1nc(NC(=O)N2CCC(Oc3ccc(Cl)cc3)CC2)ccc1=O` [Compound 71], the 50% inhibitory concentration (IC50) at SCD5 was 4960 nM; on SCD1 it was 13300 nM.

For the compound `Cc1ccccc1OC1CCN(C(=O)Nc2ccc(=O)n(C)n2)CC1` [Compound 72, N-(1-methyl-6-oxo-1,6-dihydropyridazin-3-yl)-4-(o-tolyloxy) piperidine-1-carboxamide], the figures for the IC50 on SCD5 and on SCD1 were 280 nM and 430 nM, respectively.

Consider `COc1ccccc1OC1CCN(C(=O)Nc2ccc(=O)n(C)n2)CC1` [Compound 73, 4-(2-methoxyphenoxy)-N-(1-methyl-6-oxo-1,6-dihydropyridazin-3-yl)piperidine-1-carboxamide], for which the IC50 was determined as 12500 nM at SCD5 and 31900 nM at SCD1.

As to `Cn1nc(NC(=O)N2CCC(Oc3cccc(C(F)(F)F)c3)CC2)ccc1=O` [Compound 74, N-(1-methyl-6-oxo-1,6-dihydropyridazin-3-yl)-4-(3-(trifluoromethyl)phenoxy) piperidine-1-carboxamide], the figures for the IC50 on SCD5 and on SCD1 were 40 nM and 20 nM, respectively.

For the compound `Cn1nc(NC(=O)N2CCC(Oc3ccccc3C(F)(F)F)CC2)ccc1=O` [Compound 75, N-(1-methyl-6-oxo-1,6-dihydropyridazin-3-yl)-4-(2-(trifluoromethyl)phenoxy) piperidine-1-carboxamide], the IC50 was found to be 70 nM on SCD5 and 220 nM at SCD1.

On to `Cn1nc(NC(=O)N2CCC(Oc3ccc(C(F)(F)F)cc3)CC2)ccc1=O` [Compound 76, N-(1-methyl-6-oxo-1,6-dihydropyridazin-3-yl)-4-(4-(trifluoromethyl)phenoxy) piperidine-1-carboxamide], for which the results for the IC50 on SCD5 and at SCD1 were 4800 nM and 9770 nM, respectively.

Regarding `Cn1nc(NC(=O)N2CCC(Oc3cc(F)cc(F)c3)CC2)ccc1=O` [Compound 79, 4-(3,5-difluorophenoxy)-N-(1-methyl-6-oxo-1,6-dihydropyridazin-3-yl)piperidine-1-carboxamide], the values for the IC50 on SCD5 and on SCD1 were 200 nM and 480 nM, respectively.

As for `Cn1nc(NC(=O)N2CCC(Oc3ccc(F)c(F)c3)CC2)ccc1=O` [Compound 80], the IC50 at SCD5 stood at 1190 nM; on SCD1, 1980 nM.

For `Cn1nc(NC(=O)N2CCC(Oc3cccc(Cl)c3Cl)CC2)ccc1=O` [Compound 81, 4-(2,3-dichlorophenoxy)-N-(1-methyl-6-oxo-1,6-dihydropyridazin-3-yl)piperidine-1-carboxamide], the IC50 on SCD5 worked out at 150 nM; at SCD1, 60 nM.

As to `Cn1nc(NC(=O)N2CCC(Oc3cc(F)ccc3Cl)CC2)ccc1=O` [Compound 82, 4-(2-chloro-5-fluorophenoxy)-N-(1-methyl-6-oxo-1,6-dihydropyridazin-3-yl)piperidine-1-carboxamide], the figures for the half-inhibitory concentration (IC50) at SCD5 and on SCD1 were 20 nM and 50 nM, respectively.

`Cn1nc(NC(=O)N2CCC(Oc3ccc(F)cc3Cl)CC2)ccc1=O` [Compound 83, 4-(2-chloro-4-fluorophenoxy)-N-(1-methyl-6-oxo-1,6-dihydropyridazin-3-yl)piperidine-1-carboxamide]: the results for the IC50 at SCD5 and on SCD1 were 6210 nM and 4360 nM, respectively.

Regarding `Cn1nc(NC(=O)N2CCC(Oc3cccc(F)c3C(F)(F)F)CC2)ccc1=O` [Compound 84], the IC50 was found to be 170 nM at SCD5 and 430 nM on SCD1.
